The results in this text go back to patent US20230129258A1, “HETEROTANDEM BICYCLIC PEPTIDE COMPLEXES” (BicycleTx Limited, priority 2019, published 2023).

Assay [1] concerns CT26 #7 tumor tissue T cells. Briefly: Flow cytometry of T cells in CT26 #7 tumor tissue 1 h after last Q3D dose. It is filed as in vivo, BALB/c-hCD137 mice. The settings on record: 5 mg/kg ip Q3D, 1 h after 6th dose. The protocol:
1 hour after the last vehicle or BCY11863 dose the […] bearing mice were sacrificed and tumors were harvested, processed for single cell suspensions and stained for flow cytometry analysis for total T cells (CD45+CD3+), CD8+ T cells (CD45+CD3+CD8+), CD4+ T cells (CD45+CD3+CD4+) and regulatory T cells (Tregs; CD45+CD3+CD4+Foxp3+).
A general note: A flow cytometer gives signals particle by particle.

In a further assay the target is T1, rat Nectin-4 (Rattus norvegicus, UniProt D3ZET1).
T1 construct: extracellular domain using biotinylated human
Briefly: Multicomponent SPR: Nectin-4 binding to complex captured on biotinylated human CD137, rat Nectin-4. An excerpt: (§1) To understand whether the binding of BCY11863 to Nectin-4 was altered in the context of the ternary complex, i.e. when also bound to CD137, a multicomponent SPR binding assay was developed. BCY11863 was first captured to human CD137 immobilized on the SPR chip surface and then Nectin-4 from different species were passed over the chip to determine their affinities to the captured BCY11863 (see FIG. 21C). The affinities to Nectin-4 were generally maintained in the presence of CD137 binding as shown below: […]

A further assay deals with cyno Nectin-4. Briefly: Multicomponent SPR: Nectin-4 binding to complex captured on biotinylated human CD137, cyno Nectin-4. Particulars: Sandwich Assay, Nectin-4 ECD, biotinylated human CD137 as capture reagent; read-out: SPR KD NHP.
Description: as §1

Another assay concerns the target CD137 (Homo sapiens, UniProt Q07011). In words: CD137 reporter assay (Promega, Jurkat cells) in co-culture with EphA2-expressing tumor cells (A549, PC3, HT29). It is filed as cell-based. On the set-up: host or cells: Jurkat reporter cells. The settings on record: for EC50: EC50 (nM); for EC50 / Emax: individual replicates. The essentials: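 Readout is Bio-Glo luminescence after 6 h, 37° C co-culture of CD137 reporter Jurkat cells, target tumor cells (EphA2: A549, PC3, HT29; PD-L1: RKO) and titrated test articles in 1% FBS RPMI. EC50 (nM) and maximal induction come from fold change over untreated co-culture.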
For orientation: Reporter assays use an easily measured gene product as a stand-in for the process of interest.

The next assay relates to human PBMCs. In words: Human PBMC co-culture cytokine secretion assay with EphA2-expressing tumor cells (MC38, HT-1080, HT29). The settings on record: anti-CD3, 48 h, read-out: EC50 of IL-2 cytokine secretion. It is filed as cell-based. The protocol:
[…] MC38 were cultured in Dulbecco's Modified Eagle Medium supplemented with 10% heat inactivated Fetal Bovine Serum (FBS), 1× Penicillin/Streptomycin, 10 mM HEPES, and 2 mM L-Glutamine (referred to as R10 medium). Frozen PBMCs from healthy human donors were thawed and washed once in room temperature PBS with benzonase, and then resuspended in RPMI supplemented with 10% heat inactivated Fetal Bovine Serum (FBS), 1× Penicillin/Streptomycin, 10 mM HEPES, and 2 mM L-Glutamine (herein referred to as R10 medium). 100 μl of PBMCs (1,000,000 PBMCs/ml) and 100 μl of tumor cells (100,000 tumor cells/ml) (Effector:Target cell ratio (E:T) 10:1) were plated in each well of a 96 well flat bottom plate for the co-culture assay. 100 ng/ml of soluble anti-CD3 mAb (clone OKT3) was added to the culture on day 0 to stimulate human PBMCs. Test, control compounds, or vehicle controls were diluted in R10 media and 50 μL was added to respective wells to bring the final volume per well to 250 μL. Plates were covered with a breathable film and incubated in a humidified chamber at 37° C. with 5% CO2 for two days. […] Briefly, the standards and samples were added to a black 96 well plate. Microparticle cocktail (provided in Luminex kit, R&D Systems) was added and shaken for 2 hours at room temperature. The plate was washed 3 times using a magnetic holder. Biotin cocktail was then added to the plate and shaken for 1 hour at RT. The plate was washed 3 times using a magnetic holder. Streptavidin cocktail was added to the plate and shaken for 30 minutes at RT. The plates were washed 3 times using a magnetic holder, resuspended in 100 μL of wash buffer, shaken for 2 minutes at RT, and read using the Luminex 2000. Raw data were analyzed using built-in Luminex software to generate standard curves and interpolate protein concentrations, all other data analyses and graphing were performed using Excel and Prism software. Data represents one study with three independent donor PBMCs tested in experimental duplicates.
Similarly, PBMCs from healthy donors were co-cultured with EphA2 expressing cancer cells (MC38 and HT-1080) at a ratio of 5:1 in presence of anti-CD3 and BCY13272. […]

Where “and” joins values, the source holds several entries; their conditions need not be identical. Identical values can stand only once. Like-named read-outs stand apart in the source and are kept apart here. Starred links: 1 amine or outer side, 2 acyl side, 3 side chain; linkers in the order of their positions; H or OH if unused. Positions of bridges follow the written chain, without caps; N, C: chain ends. Non-standard residues stand in square brackets, D forms with d. Chains are numbered I, II in the order given. X1 = O=C(CCOCCOCCOCCN(CCOCCOCCOCCn1cc(CCC(=O)[*:2])nn1)CCOCCOCCOCCn1cc(CCC(=O)[*:3])nn1)[*:1]; TATA = O=C(CC[*:1])N1CN(C(=O)CC[*:2])CN(C(=O)CC[*:3])C1; d1Nal = N[C@H](Cc1cccc2ccccc12)C(=O)O; Hyp = O=C(O)[C@@H]1C[C@@H](O)CN1; hArg = N=C(N)NCCCC[C@H](N)C(=O)O; tBuAla = CC(C)(C)C[C@H](N)C(=O)O; Nle = CCCC[C@H](N)C(=O)O

Chain of CD137 (Q07011 24-255): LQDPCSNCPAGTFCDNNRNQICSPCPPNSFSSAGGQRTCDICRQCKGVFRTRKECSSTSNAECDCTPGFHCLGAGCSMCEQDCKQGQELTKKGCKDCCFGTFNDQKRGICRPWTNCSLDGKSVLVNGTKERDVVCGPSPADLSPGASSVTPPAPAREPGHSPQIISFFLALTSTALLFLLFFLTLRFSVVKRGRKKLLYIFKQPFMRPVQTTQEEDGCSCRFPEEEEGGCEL
T1 sequence (D3ZET1 31-509): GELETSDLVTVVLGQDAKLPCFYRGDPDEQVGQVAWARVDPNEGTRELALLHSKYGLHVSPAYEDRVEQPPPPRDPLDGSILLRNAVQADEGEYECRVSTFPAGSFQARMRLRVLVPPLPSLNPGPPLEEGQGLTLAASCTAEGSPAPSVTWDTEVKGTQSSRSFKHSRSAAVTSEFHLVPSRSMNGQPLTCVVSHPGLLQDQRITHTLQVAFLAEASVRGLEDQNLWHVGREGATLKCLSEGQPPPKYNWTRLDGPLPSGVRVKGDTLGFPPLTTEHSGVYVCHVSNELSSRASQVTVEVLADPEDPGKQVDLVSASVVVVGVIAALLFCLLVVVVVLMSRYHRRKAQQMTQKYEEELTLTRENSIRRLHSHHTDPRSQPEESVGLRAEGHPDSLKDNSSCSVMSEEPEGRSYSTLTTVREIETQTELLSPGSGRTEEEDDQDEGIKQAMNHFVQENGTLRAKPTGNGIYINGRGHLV
T1 sequence (Q07011 24-186 partner): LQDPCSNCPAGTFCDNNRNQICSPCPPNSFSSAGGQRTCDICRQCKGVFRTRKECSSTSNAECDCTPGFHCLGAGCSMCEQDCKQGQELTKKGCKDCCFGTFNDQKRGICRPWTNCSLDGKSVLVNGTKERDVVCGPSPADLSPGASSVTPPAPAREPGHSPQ

As for `CCCC[C@@H]1NC(=O)[C@H](Cc2ccc(O)cc2)NC(=O)[C@@H]2CCCN2C(=O)[C@H](CC(=O)O)NC(=O)[C@H](C)NC(=O)[C@H](Cc2ccccc2)NC(=O)[C@@H]2CSCCC(=O)N3CN(CN(C3)C(=O)CCSC[C@@H](C(=O)N[C@@H](C)C(N)=O)NC1=O)C(=O)CCSC[C@H](NC(C)=O)C(=O)N[C@@H](CC(C)(C)C)C(=O)N1CCC[C@H]1C(=O)N[C@@H](CCC(=O)O)C(=O)N[C@H](CCCCNC(=O)CCc1cn(CCOCCOCCOCCN(CCOCCOCCOCCC(=O)N[C@H]3CSCCC(=O)N4CN5CN(C4)C(=O)CCSC[C@H](NC(=O)[C@@H](CC(=O)O)NC(=O)[C@H](Cc4cccc6ccccc46)NC(=O)[C@@H]4CCCN4C3=O)C(=O)N[C@@H](CCSC)C(=O)N[C@@H](CCCCNC(=N)N)C(=O)N[C@@H](CC(=O)O)C(=O)N[C@@H](Cc3c[nH]c4ccccc34)C(=O)N[C@@H](CO)C(=O)N[C@@H]([C@@H](C)O)C(=O)N3CCC[C@H]3C(=O)N3C[C@H](O)C[C@H]3C(=O)N[C@@H](Cc3c[nH]c4ccccc34)C(=O)N[C@H](C(N)=O)CSCCC5=O)CCOCCOCCOCCn3cc(CCC(=O)NCCCC[C@H]4NC(=O)[C@H](CCC(=O)O)NC(=O)[C@@H]5CCCN5C(=O)[C@H](CC(C)(C)C)NC(=O)[C@@H](NC(C)=O)CSCCC(=O)N5CN6CN(C5)C(=O)CCSC[C@H](NC(=O)[C@H](Cc5ccc(O)cc5)NC(=O)[C@@H]5CCCN5C4=O)C(=O)N[C@@H](Cc4ccccc4)C(=O)N[C@@H](C)C(=O)N[C@@H](CC(=O)O)C(=O)N4CCC[C@H]4C(=O)N[C@@H](Cc4ccc(O)cc4)C(=O)N[C@@H](CCCC)C(=O)N[C@H](C(=O)N[C@@H](C)C(N)=O)CSCCC6=O)nn3)nn1)C(=O)N1CCC[C@H]1C(=O)N[C@@H](Cc1ccc(O)cc1)C(=O)N2` [BCY11863], in assay [1] (p<0.0001), the “CD8+ T cells in tumor” value was “significant increase” and the “total T cells (CD45+CD3+) in tumor” value is reported as “significant increase”. Further, in assay [1] (p<0.05), the “CD8+ T cell/Treg ratio in tumor” value was “significant increase”. Further, the Kd on rat Nectin-4 stood at 25 ± 2 nM. Further, the Kd at cyno Nectin-4 stood at 28 ± 5 nM.
For the molecule “I: A[hArg]DC[Hyp]LVNPLCLEP[d1Nal]WTC-NH2 / II: Ac-C[tBuAla]PE[dK]PYCFADPY[Nle]CA-NH2 / III: Ac-C[tBuAla]PE[dK]PYCFADPY[Nle]CA-NH2 (linker I:4-I:11-I:18, II:1-II:8-II:15, III:1-III:8-III:15 via TATA; linker I:N-II:5-III:5 via X1) [BCY13272]”, the EC50 at CD137 (co-culture with HT-29) was 0.567 nM and 0.187 nM and 0.205 nM; at CD137 (co-culture with PC-3), 0.0805 nM and 0.0898 nM and 0.245 nM; with human PBMCs (human PBMC-HT-1080 co-culture), 0.55 ± 0.47 nM; in the assay on human PBMCs (human PBMC-MC38 co-culture), 0.79 ± 0.24 nM. The “CD137 activation in CD137 reporter assay” value at CD137 (FIG. 16, PC3, A549 and HT29) is reported as “induces strong CD137 activation”. In addition, the Emax on CD137 (co-culture with A549) was 25.7 fold and 23.6 fold and 30.2 fold; at CD137 (co-culture with HT-29), 36.5 fold and 26 fold and 36.4 fold; on CD137 (co-culture with PC-3), 44.2 fold and 53 fold and 44.5 fold.

What is called Kd is the concentration at which binding is half-saturated. One may read the EC50 as the concentration needed to bring the measured effect to its halfway point.
